Numbers after ± are expanded uncertainties.
Details: 283.15 K; 101 kPa; Liquid
For CO [methanol], the mass density was 801.08 ± 0.56 kg/m3. For CCCO [propan-1-ol], the mass density was 811.57 ± 1.2 kg/m3. Compound CCCCCCCCO [octan-1-ol] has a mass density of 832.13 ± 0.54 kg/m3. CC(C)O [propan-2-ol] gave a mass density of 793.31 ± 0.74 kg/m3. CCO [ethanol] showed a mass density of 797.96 ± 0.57 kg/m3. Work on CCCCCO [pentan-1-ol] yielded a mass density of 822.42 ± 0.69 kg/m3. Work on CCCCCCO [hexan-1-ol] yielded a mass density of 827.82 ± 2.1 kg/m3. Work on CCCCO [butan-1-ol] yielded a mass density of 817.15 ± 0.54 kg/m3.

Same assay, conditions: 288.15 K; 101 kPa; Liquid
Compound CO [methanol] has a mass density of 796.41 ± 0.57 kg/m3. For CCCO [propan-1-ol], the mass density was 807.62 ± 1.2 kg/m3. In the case of CCCCCCCCO [octan-1-ol], the mass density is reported as 828.71 ± 0.55 kg/m3. Work on CC(C)O [propan-2-ol] yielded a mass density of 789.22 ± 0.75 kg/m3. Work on CCO [ethanol] yielded a mass density of 793.71 ± 0.58 kg/m3. CCCCCO [pentan-1-ol] gave a mass density of 818.79 ± 0.7 kg/m3. With CCCCCCO [hexan-1-ol] the mass density was 824.25 ± 2.1 kg/m3. For CCCCO [butan-1-ol], the mass density was 813.38 ± 0.54 kg/m3.

Same assay, conditions: 293.15 K; 101 kPa; Liquid
Work on CO [methanol] yielded a mass density of 791.71 ± 0.58 kg/m3. With CCCO [propan-1-ol] the mass density was 803.63 ± 1.2 kg/m3. CCCCCCCCO [octan-1-ol] showed a mass density of 825.27 ± 0.56 kg/m3. In the case of CC(C)O [propan-2-ol], the mass density is reported as 785.08 ± 0.75 kg/m3. CCO [ethanol] showed a mass density of 789.44 ± 0.59 kg/m3. In the case of CCCCCO [pentan-1-ol], the mass density is reported as 815.13 ± 0.7 kg/m3. CCCCCCO [hexan-1-ol] gave a mass density of 820.65 ± 2.1 kg/m3. For CCCCO [butan-1-ol], the mass density was 809.59 ± 0.55 kg/m3.

Same assay, conditions: 298.15 K; 101 kPa; Liquid
For CO [methanol], the mass density was 787.01 ± 0.59 kg/m3. For CCCO [propan-1-ol], the mass density was 799.62 ± 1.2 kg/m3. In the case of CCCCCCCCO [octan-1-ol], the mass density is reported as 821.81 ± 0.56 kg/m3. In the case of CC(C)O [propan-2-ol], the mass density is reported as 780.87 ± 0.76 kg/m3. Compound CCO [ethanol] has a mass density of 785.15 ± 0.6 kg/m3. For CCCCCO [pentan-1-ol], the mass density was 811.45 ± 0.71 kg/m3. In the case of CCCCCCO [hexan-1-ol], the mass density is reported as 817.03 ± 2.1 kg/m3. Compound CCCCO [butan-1-ol] has a mass density of 805.77 ± 0.56 kg/m3.

Same assay, conditions: 303.15 K; 101 kPa; Liquid
CO [methanol] showed a mass density of 782.29 ± 0.6 kg/m3. Work on CCCO [propan-1-ol] yielded a mass density of 795.58 ± 1.2 kg/m3. CCCCCCCCO [octan-1-ol] gave a mass density of 818.33 ± 0.57 kg/m3. In the case of CC(C)O [propan-2-ol], the mass density is reported as 776.6 ± 0.77 kg/m3. In the case of CCO [ethanol], the mass density is reported as 780.83 ± 0.6 kg/m3. Work on CCCCCO [pentan-1-ol] yielded a mass density of 807.74 ± 0.72 kg/m3. For CCCCCCO [hexan-1-ol], the mass density was 813.39 ± 2.1 kg/m3. In the case of CCCCO [butan-1-ol], the mass density is reported as 801.92 ± 0.57 kg/m3.

Same assay, conditions: 308.15 K; 101 kPa; Liquid
Work on CO [methanol] yielded a mass density of 777.55 ± 0.61 kg/m3. For CCCO [propan-1-ol], the mass density was 791.49 ± 1.2 kg/m3. CCCCCCCCO [octan-1-ol] showed a mass density of 814.84 ± 0.58 kg/m3. For CC(C)O [propan-2-ol], the mass density was 772.25 ± 0.77 kg/m3. CCO [ethanol] gave a mass density of 776.48 ± 0.61 kg/m3. In the case of CCCCCO [pentan-1-ol], the mass density is reported as 804.01 ± 0.72 kg/m3. With CCCCCCO [hexan-1-ol] the mass density was 809.71 ± 2.1 kg/m3. For CCCCO [butan-1-ol], the mass density was 798.05 ± 0.58 kg/m3.

Same assay, conditions: 313.15 K; 101 kPa; Liquid
CO [methanol] gave a mass density of 772.78 ± 0.62 kg/m3. CCCO [propan-1-ol] gave a mass density of 787.37 ± 1.2 kg/m3. Work on CCCCCCCCO [octan-1-ol] yielded a mass density of 811.31 ± 0.58 kg/m3. For CC(C)O [propan-2-ol], the mass density was 767.81 ± 0.78 kg/m3. CCO [ethanol] showed a mass density of 772.09 ± 0.62 kg/m3. For CCCCCO [pentan-1-ol], the mass density was 800.24 ± 0.73 kg/m3. With CCCCCCO [hexan-1-ol] the mass density was 806 ± 2.1 kg/m3. In the case of CCCCO [butan-1-ol], the mass density is reported as 794.14 ± 0.58 kg/m3.

Same assay, conditions: 318.15 K; 101 kPa; Liquid
Compound CO [methanol] has a mass density of 767.97 ± 0.63 kg/m3. CCCO [propan-1-ol] gave a mass density of 783.22 ± 1.2 kg/m3. Work on CCCCCCCCO [octan-1-ol] yielded a mass density of 807.76 ± 0.59 kg/m3. CC(C)O [propan-2-ol] gave a mass density of 763.28 ± 0.79 kg/m3. In the case of CCO [ethanol], the mass density is reported as 767.65 ± 0.63 kg/m3. With CCCCCO [pentan-1-ol] the mass density was 796.43 ± 0.73 kg/m3. Compound CCCCCCO [hexan-1-ol] has a mass density of 802.27 ± 2.1 kg/m3. In the case of CCCCO [butan-1-ol], the mass density is reported as 790.19 ± 0.59 kg/m3.

Same assay, conditions: 323.15 K; 101 kPa; Liquid
Work on CO [methanol] yielded a mass density of 763.12 ± 0.64 kg/m3. For CCCO [propan-1-ol], the mass density was 779.01 ± 1.2 kg/m3. Compound CCCCCCCCO [octan-1-ol] has a mass density of 804.19 ± 0.6 kg/m3. With CC(C)O [propan-2-ol] the mass density was 758.64 ± 0.8 kg/m3. For CCO [ethanol], the mass density was 763.17 ± 0.64 kg/m3. In the case of CCCCCO [pentan-1-ol], the mass density is reported as 792.57 ± 0.74 kg/m3. CCCCCCO [hexan-1-ol] showed a mass density of 798.49 ± 2.1 kg/m3. In the case of CCCCO [butan-1-ol], the mass density is reported as 786.19 ± 0.6 kg/m3.

Same assay, conditions: 328.15 K; 101 kPa; Liquid
CO [methanol] gave a mass density of 758.23 ± 0.65 kg/m3. With CCCO [propan-1-ol] the mass density was 774.73 ± 1.2 kg/m3. Compound CCCCCCCCO [octan-1-ol] has a mass density of 800.58 ± 0.6 kg/m3. CC(C)O [propan-2-ol] gave a mass density of 753.88 ± 0.8 kg/m3. CCO [ethanol] showed a mass density of 758.63 ± 0.65 kg/m3. CCCCCO [pentan-1-ol] showed a mass density of 788.67 ± 0.75 kg/m3. Compound CCCCCCO [hexan-1-ol] has a mass density of 794.67 ± 2.1 kg/m3. CCCCO [butan-1-ol] showed a mass density of 782.14 ± 0.61 kg/m3.

Same assay, conditions: 333.15 K; 101 kPa; Liquid
In the case of CO [methanol], the mass density is reported as 753.29 ± 0.66 kg/m3. Compound CCCO [propan-1-ol] has a mass density of 770.39 ± 1.2 kg/m3. CCCCCCCCO [octan-1-ol] showed a mass density of 796.93 ± 0.61 kg/m3. With CC(C)O [propan-2-ol] the mass density was 749.01 ± 0.81 kg/m3. With CCO [ethanol] the mass density was 754.01 ± 0.66 kg/m3. Compound CCCCCO [pentan-1-ol] has a mass density of 784.72 ± 0.75 kg/m3. CCCCCCO [hexan-1-ol] showed a mass density of 790.8 ± 2.1 kg/m3. CCCCO [butan-1-ol] showed a mass density of 778.03 ± 0.62 kg/m3.

Reference: the NIST ThermoML archive (doi:10.1016/j.fluid.2007.04.030)
